# Assay results: US11254696B2, “Dianilinopyrimidine compound for inhibiting kinase activity” (Shenzhen Targetrx, Inc., priority 2017, dated 2022)
# Tests used:
# BaF3 [EML4-ALK] [1] = molecular target: T1, BaF3 [EML4-ALK] (Homo sapiens, UniProt Q9UM73); assay: Cytotoxicity test (CellTiter-Glo), BaF3 [EML4-ALK]; format: cell-based; conditions: 72 hours, CellTiter-Glo; read-out: IC50(nM) ALK (Ba/F3)
# T1 construct: IC50(nM) ALK (Ba/F3); other: 72 hours, CellTiter-Glo; BaF3 [EML4-ALK]; fused on or other part: Q9HC35 (Echinoderm microtubule-associated protein-like 4)
# T1 sequence (Q9UM73 whole entry, change not shown, the tested form may be a part): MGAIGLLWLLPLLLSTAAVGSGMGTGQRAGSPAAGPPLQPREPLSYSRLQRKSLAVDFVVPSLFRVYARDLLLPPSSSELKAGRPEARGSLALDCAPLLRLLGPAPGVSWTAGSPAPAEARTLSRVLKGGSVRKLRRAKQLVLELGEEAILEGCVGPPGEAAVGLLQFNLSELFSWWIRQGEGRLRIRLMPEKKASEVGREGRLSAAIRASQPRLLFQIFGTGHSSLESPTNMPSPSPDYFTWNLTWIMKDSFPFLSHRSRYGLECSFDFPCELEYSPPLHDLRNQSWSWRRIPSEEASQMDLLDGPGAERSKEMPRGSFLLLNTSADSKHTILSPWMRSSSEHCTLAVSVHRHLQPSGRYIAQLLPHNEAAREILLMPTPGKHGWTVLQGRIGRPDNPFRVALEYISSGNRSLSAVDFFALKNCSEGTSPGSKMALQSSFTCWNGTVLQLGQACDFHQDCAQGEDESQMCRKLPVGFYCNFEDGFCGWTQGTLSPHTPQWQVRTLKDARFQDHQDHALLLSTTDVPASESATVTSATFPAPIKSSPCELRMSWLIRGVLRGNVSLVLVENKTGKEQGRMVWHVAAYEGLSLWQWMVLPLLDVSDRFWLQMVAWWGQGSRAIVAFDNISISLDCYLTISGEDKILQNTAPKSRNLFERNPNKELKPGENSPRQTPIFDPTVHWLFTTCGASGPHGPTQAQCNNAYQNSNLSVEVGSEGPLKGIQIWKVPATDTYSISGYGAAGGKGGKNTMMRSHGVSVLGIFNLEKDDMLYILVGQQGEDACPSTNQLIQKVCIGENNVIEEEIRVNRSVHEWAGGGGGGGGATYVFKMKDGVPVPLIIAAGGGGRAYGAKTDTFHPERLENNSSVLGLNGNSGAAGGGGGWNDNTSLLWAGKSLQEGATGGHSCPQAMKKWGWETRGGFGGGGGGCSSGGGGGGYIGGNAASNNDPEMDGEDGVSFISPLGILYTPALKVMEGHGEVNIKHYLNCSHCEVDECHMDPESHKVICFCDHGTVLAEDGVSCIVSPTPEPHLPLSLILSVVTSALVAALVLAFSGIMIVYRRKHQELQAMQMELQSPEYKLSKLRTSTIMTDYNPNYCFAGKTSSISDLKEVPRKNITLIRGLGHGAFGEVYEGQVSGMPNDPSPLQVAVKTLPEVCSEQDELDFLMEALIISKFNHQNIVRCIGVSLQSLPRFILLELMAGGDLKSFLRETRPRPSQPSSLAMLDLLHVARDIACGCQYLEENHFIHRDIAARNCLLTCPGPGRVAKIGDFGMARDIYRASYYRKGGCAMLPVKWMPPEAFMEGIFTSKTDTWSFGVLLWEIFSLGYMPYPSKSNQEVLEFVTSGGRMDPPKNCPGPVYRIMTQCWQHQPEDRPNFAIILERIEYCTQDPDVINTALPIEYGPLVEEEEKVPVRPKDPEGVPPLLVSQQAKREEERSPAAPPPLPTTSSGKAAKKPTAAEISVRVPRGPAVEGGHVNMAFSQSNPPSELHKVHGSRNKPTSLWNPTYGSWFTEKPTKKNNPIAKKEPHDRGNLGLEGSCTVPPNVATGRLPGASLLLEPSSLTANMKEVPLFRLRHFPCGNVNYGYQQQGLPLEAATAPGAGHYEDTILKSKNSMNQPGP
# Description: (§1) The in vitro anti-proliferative activity of the compounds of the present disclosure against three types of cells that are cultured in vitro was tested by CellTiter-Glo method.
# (§2) Cell lines: BaF3 parental; BaF3 [EML4-ALK] (From WuXi PharmaTech) and BaF3 [EMF4-AFK F1196M] (From WuXi PharmaTech); wherein, BaF3 parental was cultured in RPMI1640 medium containing 10 ng/ml IL-3, 10% fetal bovine serum, 100 U/ml penicillin, and 100 μg/ml streptomycin, BaF3 [EMF4-AFK] and BaF3 [EMF4-AFK F1196M] were cultured in RPMI1640 medium containing 10% fetal bovine serum, 100 U/ml penicillin, and 100 μg/ml streptomycin.
# (§3) Reagents and materials: RPMI-1640 (GIBCO, Cat. No. A10491-01); fetal bovine serum (GIBCO, Cat. No. 10099141); 0.25% trypsin-EDTA (GIBCO, Cat. No. 25200); penicillin-streptomycin, liquid (GIBCO, Cat. No. 15140-122); DMSO (Sigma, Cat. No. D2650); CellTiter-Glo Test Kit (Promega, Cat. No. G7572), and 96-well plate (Corning, Cat. No. 3365).
# (§4) 1. The test compounds were dissolved in DMSO to make stock solutions and subjected to a series gradient dilution to give solutions with 10-fold working concentration.
# (§5) 2. The cells in the logarithmic growth phase were diluted with the culture solution to adjust to the specific cell concentration, 90 μi of cell suspension was added to the 96-well plate to make the cell density reach the specified concentration. The plate was incubated in a incubator at 37° C., containing 5% carbon dioxide gas overnight.
# (§6) 3. 10 μl drug solutions were added to each well of the 96-well plate inoculated with cells. 10 concentrations of the compounds were tested starting from the highest concentration of 20 μM with a 3-fold series gradient dilution in duplicate.
# (§7) 4. After continuously cultured for 72 hours, the cells were detected by CellTiter-Glo for the cell viability. The dose-effect curve was made using GraphPad Prism software and IC50 was calculated.
# BaF3 [EML4-ALK] [2] = assay: Cytotoxicity test (CellTiter-Glo), BaF3 [EML4-ALK]; format: cell-based; conditions: Ba/F3 cells
# Description: as §1, §2, §3, §4, §5, §6, §7
# [3] = Metabolic stability in rat liver microsomes; format: in vitro ADME; conditions: SD, pH 7.4, 1 μM compound, 0.5 mg/mL protein; for microsomal CLint at 1 μM: read-out: CLint (uL/min/mg), Rat liver microsome experiment; for half-life at 1 μM: read-out: t1/2 (min), Rat liver microsome experiment
# Description: (§8) Experiments in microsomes: Human liver microsomes: 0.5 mg/mL, Xenotech; Rat liver microsomes: 0.5 mg/mL, Xenotech; Coenzyme (NADPH/NADH): 1 mM, Sigma Life Science; Magnesium chloride: 5 mM, 100 mM phosphate buffer (pH 7.4).
# (§9) Preparation of stock solution: Powder of the example compounds was accurately weighed and dissolved in DMSO to 5 mM. Preparation of phosphate buffer (100 mM, pH7.4): A pre-formulated 0.5M potassium dihydrogen phosphate (150 mL) was mixed with 0.5M dibasic potassium phosphate (700 mL). The pH of the mixture was adjusted to 7.4 with 0.5M dibasic potassium phosphate solution. The mixture was diluted 5-fold with ultrapure water before use, and magnesium chloride was added to obtain a phosphate buffer (100 mM) containing 100 mM potassium phosphate, 3.3 mM magnesium chloride, pH7.4. A NADPH regeneration system solution (containing 6.5 mM NADP, 16.5 mM G-6-P, 3 U/mL G-6-PD, 3.3 mM magnesium chloride) was prepared and placed on wet ice prior to use. Preparation of stop solution: acetonitrile solution containing 50 ng/mL propranolol hydrochloride and 200 ng/mL tolbutamide (internal standard). 25057.5 μL of phosphate buffer (pH 7.4) was taken into a 50 mL centrifuge tube, to which 812.5 μL human liver microsomes were added, and mixed to obtain a liver microsome dilution solution with a protein concentration of 0.625 mg/mL. 25057.5 μL of phosphate buffer (pH 7.4) was taken into a 50 mL centrifuge tube, to which 812.5 μL SD rat liver microsomes were added, and mixed to obtain a liver microsome dilution solution with a protein concentration of 0.625 mg/mL.
# (§10) Incubation of the samples: The stock solution of the respective compound was respectively diluted to 0.25 mM with an aqueous solution containing 70% acetonitrile, and used as a working solution, ready for use. 398 μL of the dilution solution of human liver microsomes or rat liver microsome were added to a 96-well incubation plate (N=2), respectively, and 2 μL of 0.25 mM working solution was added and mixed.
# (§11) Metabolic stability assay: 300 μL of pre-chilled stop solution was added to each well of a 96-well deep well plate and placed on ice as a stop plate. The 96 well incubation plate and NADPH regeneration system were placed in a 37° C. water bath box, shaken at 100 rpm and pre-incubated for 5 min. 80 μL of incubation solution was taken out from each well of the incubation plate and added to the stop plate, mixed, and replenished with 20 μL of NADPH regeneration system solution as a 0-min sample. 80 μL of NADPH regeneration system solution was added to each well of the incubation plate to start the reaction and start counting. […] Separately, 100 μL of the reaction solution was taken at 10, 30, and 90 min reaction, respectively, added to a stop plate, and vortexed for 3 minutes to terminate the reaction. The stop plate was centrifuged at 5000×g at 4° C. for 4 min. 100 μL of the supernatant was added to a 96-well plate to which 100 μL of distilled water was previously added, mixed, and analyzed by LC-MS/MS.
# (§12) Data analysis: The peak areas of the corresponding compound and internal standard were detected by LC-MS/MS system, and the ratio of the peak area of the compound to the internal standard was calculated.
# ALK [WT] = ALK [WT] (Homo sapiens, UniProt Q9UM73); assay: Kinase inhibition assay, ALK [WT]; format: biochemical
# Chain of ALK [WT] (Q9UM73 19-1620): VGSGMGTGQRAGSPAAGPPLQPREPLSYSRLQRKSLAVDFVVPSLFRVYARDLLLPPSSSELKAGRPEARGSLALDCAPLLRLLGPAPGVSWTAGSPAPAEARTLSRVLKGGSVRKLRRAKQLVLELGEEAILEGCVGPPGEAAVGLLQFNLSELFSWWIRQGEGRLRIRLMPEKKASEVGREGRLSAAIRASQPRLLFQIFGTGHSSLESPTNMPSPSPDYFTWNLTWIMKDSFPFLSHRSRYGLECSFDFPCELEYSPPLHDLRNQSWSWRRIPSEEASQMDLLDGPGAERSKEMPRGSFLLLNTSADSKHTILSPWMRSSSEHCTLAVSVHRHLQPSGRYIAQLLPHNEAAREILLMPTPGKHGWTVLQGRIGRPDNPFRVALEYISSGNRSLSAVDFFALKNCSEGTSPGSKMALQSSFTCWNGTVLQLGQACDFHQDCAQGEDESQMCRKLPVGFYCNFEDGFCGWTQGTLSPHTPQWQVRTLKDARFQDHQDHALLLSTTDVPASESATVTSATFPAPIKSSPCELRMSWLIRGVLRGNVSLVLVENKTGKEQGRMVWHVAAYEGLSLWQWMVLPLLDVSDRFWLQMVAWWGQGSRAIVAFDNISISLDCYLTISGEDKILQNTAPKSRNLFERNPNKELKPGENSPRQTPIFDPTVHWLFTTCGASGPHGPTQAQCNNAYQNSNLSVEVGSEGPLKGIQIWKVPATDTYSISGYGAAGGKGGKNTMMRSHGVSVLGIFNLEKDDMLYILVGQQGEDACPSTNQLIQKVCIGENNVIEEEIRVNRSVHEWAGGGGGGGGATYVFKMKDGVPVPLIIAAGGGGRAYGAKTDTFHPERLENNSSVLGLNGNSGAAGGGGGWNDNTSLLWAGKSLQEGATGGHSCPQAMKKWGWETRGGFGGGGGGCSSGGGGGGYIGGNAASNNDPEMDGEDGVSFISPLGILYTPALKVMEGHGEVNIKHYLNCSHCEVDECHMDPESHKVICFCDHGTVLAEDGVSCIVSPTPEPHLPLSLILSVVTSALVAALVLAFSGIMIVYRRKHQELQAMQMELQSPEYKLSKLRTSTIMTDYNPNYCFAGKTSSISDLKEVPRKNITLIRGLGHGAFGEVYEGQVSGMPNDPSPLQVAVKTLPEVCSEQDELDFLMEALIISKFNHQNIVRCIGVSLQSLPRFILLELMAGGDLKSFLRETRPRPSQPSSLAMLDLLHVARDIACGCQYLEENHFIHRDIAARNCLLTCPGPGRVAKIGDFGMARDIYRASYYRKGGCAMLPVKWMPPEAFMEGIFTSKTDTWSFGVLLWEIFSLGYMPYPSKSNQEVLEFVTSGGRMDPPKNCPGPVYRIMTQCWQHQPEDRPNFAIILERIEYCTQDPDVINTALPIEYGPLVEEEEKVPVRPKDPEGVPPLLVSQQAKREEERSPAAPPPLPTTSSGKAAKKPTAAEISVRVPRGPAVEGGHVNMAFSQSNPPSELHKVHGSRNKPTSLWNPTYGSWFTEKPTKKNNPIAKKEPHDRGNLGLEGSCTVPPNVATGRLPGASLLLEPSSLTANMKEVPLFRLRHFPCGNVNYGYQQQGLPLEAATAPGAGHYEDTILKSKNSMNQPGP
# Description: (§13) Compound preparation: The test compounds were dissolved in DMSO to make 20 mM stock solutions. The compounds were diluted in DMSO to 0.1 mM (a dilution with 100 times the final concentration) before use, and a 3-fold series gradient dilution with 11 concentrations was made. Dilutions with 4 times of the final concentration were prepared by diluting with buffer when dosing.
# (§14) Kinase assay: after preparing the buffer solution, the enzyme was mixed with pre-diluted compounds with different concentrations, and placed at room temperature for 30 minutes in duplicate. The corresponding substrate and ATP were added thereto and reacted at room temperature for 60 minutes (both a negative and a positive control were set). After the reaction, antibody was added for detection, and after incubation at room temperature for 60 minutes, Evnvision detection was carried out, and data was collected. Data was analyzed and fit according to XLfit5 software. IC50 was calculated by the following formula: (IC50=[(ABS test−ABS begin)/(ABS control−ABS begin)]×100).
# ALK[L1196M] (Ba/F3) [4] = assay: Cytotoxicity test (CellTiter-Glo), BaF3 EML4-ALK L1196M; format: cell-based; conditions: Ba/F3 cells
# Description: as §1, §2, §3, §4, §5, §6, §7
# ALK[L1196M] (Ba/F3) [5] = molecular target: T2, ALK[L1196M] (Ba/F3) (Homo sapiens, UniProt Q9UM73, L1196M, cells depend on it); assay: as above; format: cell-based; conditions: 72 hours, CellTiter-Glo; read-out: IC50(nM) ALK[L1196M] (Ba/F3)
# T2 construct: IC50(nM) ALK[L1196M]; (Ba/F3); other: 72 hours, CellTiter-Glo; BaF3 [EMF4-AFK F1196M]; fused on or other part: Q9HC35 (Echinoderm microtubule-associated protein-like 4)
# T2 sequence (Q9UM73 whole entry L1196M, the tested form may be a part): as the sequence (Q9UM73 whole entry, change not shown, the tested form may be a part) above, with L1196M counted along it
# Description: as §1, §2, §3, §4, §5, §6, §7
# ALK [L1196M] = ALK [L1196M] (Homo sapiens, UniProt Q9UM73, L1196M); assay: Kinase inhibition assay, ALK [L1196M]; format: biochemical
# Chain of ALK [L1196M] (Q9UM73 19-1620 L1196M): as the sequence (Q9UM73 19-1620) above, with L1178M counted along it
# Description: as §13, §14
# BaF3 parental = assay: Cytotoxicity test (CellTiter-Glo), BaF3 parental; format: cell-based; conditions: Mus musculus, 72 hours, read-out: IC50(nM) parental (Ba/F3)
# Description: as §1, §2, §3, §4, §5, §6, §7
# [6] = Metabolic stability in human liver microsomes; format: in vitro ADME; conditions: pH 7.4, 1 μM compound, 0.5 mg/mL protein; for microsomal CLint at 1 μM: read-out: CLint (uL/min/mg), Human liver microsome experiment; for half-life at 1 μM: read-out: t1/2 (min), Human liver microsome experiment
# Description: as §8, §9, §10, §11, §12
Compound,microsomal CLint at 1 μM [3] [µL/min/mg],half-life at 1 μM [3] [min],IC50 (ALK [WT]) [nM],IC50 (ALK [L1196M]) [nM],microsomal CLint at 1 μM [6] [µL/min/mg],half-life at 1 μM [6] [min],GI50 (BaF3 [EML4-ALK] [1]) [nM],Selectivity parental/ALK (BaF3 [EML4-ALK] [2]),Selectivity parental/ALK[L1196M] (ALK[L1196M] (Ba/F3) [4]),GI50 (ALK[L1196M] (Ba/F3) [5]) [nM],IC50 (BaF3 parental) [nM]
"COc1cc(CCN)ccc1Nc1ncc(Cl)c(Nc2ccccc2P(C)(C)=O)n1 [Example 2, (2-((2-((4-(2-aminoethyl)-2-methoxyphenyl)amino)-5-chloropyrimidin-4-yl)amino)phenyl)dimethylphosphine oxide]",8.4,165,≤ 2,2 to 5,8.7,160,100 to 200,<50,<50,200 to 1000,≥ 1000
"COc1cc(CCN2CCCCC2)ccc1Nc1ncc(Cl)c(Nc2ccccc2P(C)(C)=O)n1 [Example 4, (2-((5-chloro-2-((2-methoxy-4-(2-(piperidin-1-yl)ethyl)phenyl)amino)pyrimidin-4-yl)amino)phenyl)dimethylphosphine oxide]",34.7,39.9,≤ 2,2 to 5,26.7,51.9,< 25,200 to 500,<50,50 to 100,≥ 1000
"CNCC(C)(C)c1ccc(Nc2ncc(Cl)c(Nc3ccccc3P(C)(C)=O)n2)c(OC)c1 [Example 11, (2-((5-chloro-2-((2-methoxy-4-(2-methyl-1-(methylamino)propan-2-yl)phenyl)amino)pyrimidin-4-yl)amino)phenyl)dimethylphosphine oxide]",7.2,194,2 to 5,5 to 10,23.8,58.2,25 to 50,100 to 200,50 to 100,50 to 100,≥ 1000
"COc1cc(C(C)(C)CN)ccc1Nc1ncc(Cl)c(Nc2ccccc2P(C)(C)=O)n1 [Example 10, (2-((2-((4-(1-amino-2-methylpropan-2-yl)-2-methoxyphenyl)amino)-5-chloropyrimidin-4-yl)amino)phenyl)dimethylphosphine oxide]",15.1,92,2 to 5,2 to 5,25.2,55,25 to 50,100 to 200,<50,100 to 200,≥ 1000

# Second part, led by results:
microsomal CLint at 1 μM [3] [µL/min/mg],half-life at 1 μM [3] [min],IC50 (ALK [WT]) [nM],IC50 (ALK [L1196M]) [nM],microsomal CLint at 1 μM [6] [µL/min/mg],half-life at 1 μM [6] [min],Compound,GI50 (BaF3 [EML4-ALK] [1]) [nM],Selectivity parental/ALK (BaF3 [EML4-ALK] [2]),Selectivity parental/ALK[L1196M] (ALK[L1196M] (Ba/F3) [4]),GI50 (ALK[L1196M] (Ba/F3) [5]) [nM],IC50 (BaF3 parental) [nM]
28.8,48.2,2 to 5,2 to 5,24.6,56.3,"COc1cc(C(C)N(C)C)ccc1Nc1ncc(Cl)c(Nc2ccccc2P(C)(C)=O)n1 (centres unmarked) [Example 8, (2-((5-chloro-2-((4-(1-(dimethylamino)ethyl)-2-methoxyphenyl)amino)pyrimidin-4-yl)amino)phenyl)dimethylphosphine oxide]",25 to 50,100 to 200,<50,100 to 200,≥ 1000
50.4,27.5,≤ 2,2 to 5,15.4,90.1,"COc1cc(CCN(C)C)ccc1Nc1ncc(Cl)c(Nc2ccccc2P(C)(C)=O)n1 [Example 3, (2-((5-chloro-2-((4-(2-(dimethylamino)ethyl)-2-methoxyphenyl)amino)pyrimidin-4-yl)amino)phenyl)dimethylphosphine oxide]",25 to 50,50 to 100,<50,100 to 200,≥ 1000
9.9,140,2 to 5,2 to 5,11.3,123,"CNC(C)c1ccc(Nc2ncc(Cl)c(Nc3ccccc3P(C)(C)=O)n2)c(OC)c1 (centres unmarked) [Example 9, (2-((5-chloro-2-((4-(1-(methylamino)ethyl)-2-methoxyphenyl)amino)pyrimidin-4-yl)amino)phenyl)dimethylphosphine oxide]",50 to 100,50 to 100,<50,200 to 1000,≥ 1000
